In patent US8962859B2, “Spiro-amino-imidazo-fused heterocyclic compounds as beta-secretase modulators and methods of use” (Amgen Inc., priority 2011, dated 2015):

Columns and labels:
gamma-secretase = conditions: cited from earlier work
[1] = tested on: Aβ 40 levels in cells stably expressing Amyloid Precursor Protein (APP); assay: In vitro BACE cell-based assay (HEK cell assay), Aβ40 sandwich ELISA; conditions: average IC50, inhibition of Aβ40 in conditioned medium after 24 h
Method: The cell-based assay measures inhibition or reduction of Aβ40 in conditioned medium of test compound treated cells expressing amyloid precursor protein.
Cells stably expressing Amyloid Precursor Protein (APP) were plated at a density of 40K cells/well in 96 well plates (Costar). The cells were cultivated for 24 hours at 37° C. and 5% CO2 in DMEM supplemented with 10% FBS. The test compounds were then added to cells in 10-point dose response concentrations with the starting concentration being either 100 μM or 10 μM. The compounds were diluted from stock solutions in DMSO and the final DMSO concentration of the test compounds on cells was 0.1%. After 24 h of incubation with the test compounds the supernatant conditioned media was collected and the Aβ 40 levels were determined using a sandwich ELISA. The IC50 of the compound was calculated from the percent of control or percent inhibition of Aβ 40 as a function of the concentration of the test compound.
The sandwich ELISA to detect Aβ 40 was performed in 96 well microtiter plates, which were pre-treated with goat anti-rabbit IgG (Pierce). The capture and detecting antibody pair that were used to detect Aβ 40 from cell supernatants were affinity purified pAb40 (Biosource) and biotinylated 6E10 (Signet Labs Inc.), respectively.
Cellular supernatants were incubated with the capture antibody for 3 h at 4° C., followed by 3 wash steps in TBS-tween (0.05%). The detecting antibody incubation was for 2 h at 4° C., again followed by the wash steps as described previously. The final readout of the ELISA is Time-Resolved Fluorescence (counts per minute) using Delfia reagents Streptavidin-Europium and Enhancement solutions (Perkin Elmer) and the Victor 2 multilabel counter (Perkin Elmer).

BACE 1 = BACE 1 (Homo sapiens (Human), UniProt P56817); assay: In vitro enzymatic BACE FRET assay; type: biochemical; conditions: average IC50; acetate buffer pH 4.2, enzyme 0.2 nM, FRET substrate 50 nM
BACE 1, sequence (P56817 46-501): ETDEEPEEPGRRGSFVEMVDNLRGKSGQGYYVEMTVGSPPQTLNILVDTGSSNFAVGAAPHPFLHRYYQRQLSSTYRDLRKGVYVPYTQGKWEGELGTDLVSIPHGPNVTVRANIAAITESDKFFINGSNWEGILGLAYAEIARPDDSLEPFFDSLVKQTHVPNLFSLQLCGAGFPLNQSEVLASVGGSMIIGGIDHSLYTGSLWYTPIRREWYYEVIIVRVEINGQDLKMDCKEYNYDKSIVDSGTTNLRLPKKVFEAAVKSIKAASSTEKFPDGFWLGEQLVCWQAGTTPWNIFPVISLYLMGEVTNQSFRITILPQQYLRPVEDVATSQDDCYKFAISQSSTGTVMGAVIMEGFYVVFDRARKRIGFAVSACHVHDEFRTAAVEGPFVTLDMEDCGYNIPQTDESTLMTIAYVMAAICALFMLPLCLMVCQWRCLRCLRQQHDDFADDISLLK
Method: In Vitro Enzymatic BACE FRET (Fluorescence Resonance Energy Transfer) Assay (Enzyme Assay Data in the Example Table I)
The assay buffer used in this screen is 0.05 M acetate, pH 4.2, 10% DMSO final, 100 uM genapol (which is a nonionic detergent, below its Critical Micelle Concentration). The Beta Secretase enzyme (0.2 nM) is pre-incubated for one hour with inhibitors, typically in about 1 uL of DMSO according to a serial dilution, are added thereto. This assay is effectively started by the addition of FRET substrate (50 nM) and the combination is incubated for one hour. The FRET assay is terminated with by addition of Tris buffer, which raises the pH to neutrality, and the fluorescence is determined. The FRET substrate is a peptide with commercially available fluorophore and quencher, on opposite sides of the BACE cleavage site. Proteolytic cleavage of the FRET substrate releases quenching of fluorescence (excitation 488 nm and […]).

| Compound | notch selectivity (amyloid-beta precursor protein selective) (gamma-secretase) [×] | IC50 ([1]; Homo sapiens, HEK293) [µM] | IC50 (BACE 1) [µM] | IC50 [1] [µM] |
| --- | --- | --- | --- | --- |
| NC(=O)[C@@H](CCC(F)(F)F)N(Cc1ccc(-c2ncon2)cc1F)S(=O)(=O)c1ccc(Cl)cc1 [BMS-708163] | 193 |  |  |  |
| NC1=N[C@]2(c3cc(-c4cccnc4F)ccc3Oc3c(F)cc(-c4ccnc(F)c4)cc32)c2nccn21 [Example 8A, (7S)-4′-fluoro-7′-(2-fluoro-3-pyridinyl)-2′-(2-fluoro-4-pyridinyl)spiro[imidazo[1,5-a]imidazole-7,9′-xanthen]-5-amine] |  | 0.138 | 0.01 |  |
| NC1=N[C@@]2(c3cc(-c4cccnc4F)ccc3Oc3c(F)cc(-c4ccnc(F)c4)cc32)c2nccn21 [Example 8B, (7R)-4′-fluoro-7′-(2-fluoro-3-pyridinyl)-2′-(2-fluoro-4-pyridinyl)spiro[imidazo[1,5-a]imidazole-7,9′-xanthen]-5-amine] |  | 0.086 | 0.0003 |  |
| NC1=N[C@]2(c3cc(-c4cccnc4F)ccc3Oc3c(F)cc(N4CCOCC4)cc32)c2nccn21 [Example 9A, (7S)-4′-fluoro-7′-(2-fluoro-3-pyridinyl)-2′-(4-morpholinyl)spiro[imidazo[1,5-a]imidazole-7,9′-xanthen]-5-amine] |  | 3.97 | 0.189 |  |
| NC1=N[C@@]2(c3cc(-c4cccnc4F)ccc3Oc3c(F)cc(N4CCOCC4)cc32)c2nccn21 [Example 9B, (7R)-4′-fluoro-7′-(2-fluoro-3-pyridinyl)-2′-(4-morpholinyl)spiro[imidazo[1,5-a]imidazole-7,9′-xanthen]-5-amine] |  | 0.031 | 0.0007 |  |
| COc1cc(F)c2c(c1)[C@@]1(N=C(N)N3CCCN=C31)c1cc(-c3cccnc3F)ccc1O2 [Example 10, (7S)-4′-fluoro-7′-(2-fluoropyridin-3-yl)-2′-methoxy-3,4-dihydro-2H-spiro[imidazo[1,5-a]pyrimidine-8,9′-xanthen]-6-amine (7R)-4′-fluoro-7′-(2-fluoropyridin-3-yl)-2′-methoxy-3,4-dihydro-2H-spiro[imidazo[1,5-a]pyrimidine-8,9′-xanthen]-6-amine] |  | 0.078 | 0.022 |  |
| COc1cc(F)c2c(c1)C1(N=C(N)n3ccnc31)c1cc(-c3cccnc3F)ccc1O2 (stereo not shown) [Example 11, 4′-fluoro-7′-(2-fluoro-3-pyridinyl)-2′-methoxyspiro[imidazo[1,5-a]imidazole-7,9′-xanthen]-5-amine] |  | 0.058 | 0.009 |  |
| NC1=N[C@@]2(c3cc(-c4cccnc4F)ccc3Oc3c(F)cc(C4=CCCOC4)cc32)c2nccn21 [Example 12, (7R)-2′-(5,6-dihydro-2H-pyran-3-yl)-4′-fluoro-7′-(2-fluoro-3-pyridinyl)spiro[imidazo[1,5-a]imidazole-7,9′-xanthen]-5-amine] |  | 0.173 | 0.023 |  |
| NC1=N[C@]2(c3cc(-c4cccnc4F)ccc3Oc3c(F)cc(C4=CCCOC4)cc32)c2nccn21 [Example 13, (7S)-2′-(5,6-dihydro-2H-pyran-3-yl)-4′-fluoro-7′-(2-fluoro-3-pyridinyl)spiro[imidazo[1,5-a]imidazole-7,9′-xanthen]-5-amine] |  | 0.029 | 0.0004 |  |
| Cc1ccc(-c2cc(F)c3c(c2)[C@]2(N=C(N)n4ccnc42)c2cc(-c4cccnc4F)ccc2O3)cc1 [Example 14, (7R)-4′-fluoro-7′-(2-fluoro-3-pyridinyl)-2′-(4-methylphenyl)spiro[imidazo[1,5-a]imidazole-7,9′-xanthen]-5-amine] |  | 4.16 | 0.114 |  |
| Cc1ccc(-c2cc(F)c3c(c2)[C@@]2(N=C(N)n4ccnc42)c2cc(-c4cccnc4F)ccc2O3)cc1 [Example 15, (7S)-4′-fluoro-7′-(2-fluoro-3-pyridinyl)-2′-(4-methylphenyl)spiro[imidazo[1,5-a]imidazole-7,9′-xanthen]-5-amine] |  | 0.028 | 0.0004 |  |
| NC1=N[C@]2(c3cc(-c4cccnc4F)ccc3Oc3c(F)cc(N4CCC(F)(F)CC4)cc32)c2nccn21 [Example 17, (7R)-2′-(4,4-difluoro-1-piperidinyl)-4′-fluoro-7′-(2-fluoro-3-pyridinyl)spiro[imidazo[1,5-a]imidazole-7,9′-xanthen]-5-amine, (7S)-2′-(4,4-difluoro-1-piperidinyl)-4′-fluoro-7′-(2-fluoro-3-pyridinyl)spiro[imidazo[1,5-a]imidazole-7,9′-xanthen]-5-amine] |  |  | 0.0007 | 0.051 |
| (7R)-2′-(3,6-dihydro-2H-pyran-4-yl)-4′-fluoro-7′-(2-fluoro-3-pyridinyl)spiro[imidazo[1,5-a]imidazole-7,9′-xanthen]-5-amine, (7S)-2′-(3,6-dihydro-2H-pyran-4-yl)-4′-fluoro-7′-(2-fluoro-3-pyridinyl)spiro[imidazo[1,5-a]imidazole-7,9′-xanthen]-5-amine [Example 16] |  |  | 0.0006 | 0.039 |
